Target: Metabotropic glutamate receptor 5 (Homo sapiens, UniProt P41594)
Assay: Positive allosteric modulation of human mGlu5 expressed in HEK293 cells assessed as glutamate-induced calcium mobilization

Metabotropic glutamate receptor 5, sequence (P41594 whole entry): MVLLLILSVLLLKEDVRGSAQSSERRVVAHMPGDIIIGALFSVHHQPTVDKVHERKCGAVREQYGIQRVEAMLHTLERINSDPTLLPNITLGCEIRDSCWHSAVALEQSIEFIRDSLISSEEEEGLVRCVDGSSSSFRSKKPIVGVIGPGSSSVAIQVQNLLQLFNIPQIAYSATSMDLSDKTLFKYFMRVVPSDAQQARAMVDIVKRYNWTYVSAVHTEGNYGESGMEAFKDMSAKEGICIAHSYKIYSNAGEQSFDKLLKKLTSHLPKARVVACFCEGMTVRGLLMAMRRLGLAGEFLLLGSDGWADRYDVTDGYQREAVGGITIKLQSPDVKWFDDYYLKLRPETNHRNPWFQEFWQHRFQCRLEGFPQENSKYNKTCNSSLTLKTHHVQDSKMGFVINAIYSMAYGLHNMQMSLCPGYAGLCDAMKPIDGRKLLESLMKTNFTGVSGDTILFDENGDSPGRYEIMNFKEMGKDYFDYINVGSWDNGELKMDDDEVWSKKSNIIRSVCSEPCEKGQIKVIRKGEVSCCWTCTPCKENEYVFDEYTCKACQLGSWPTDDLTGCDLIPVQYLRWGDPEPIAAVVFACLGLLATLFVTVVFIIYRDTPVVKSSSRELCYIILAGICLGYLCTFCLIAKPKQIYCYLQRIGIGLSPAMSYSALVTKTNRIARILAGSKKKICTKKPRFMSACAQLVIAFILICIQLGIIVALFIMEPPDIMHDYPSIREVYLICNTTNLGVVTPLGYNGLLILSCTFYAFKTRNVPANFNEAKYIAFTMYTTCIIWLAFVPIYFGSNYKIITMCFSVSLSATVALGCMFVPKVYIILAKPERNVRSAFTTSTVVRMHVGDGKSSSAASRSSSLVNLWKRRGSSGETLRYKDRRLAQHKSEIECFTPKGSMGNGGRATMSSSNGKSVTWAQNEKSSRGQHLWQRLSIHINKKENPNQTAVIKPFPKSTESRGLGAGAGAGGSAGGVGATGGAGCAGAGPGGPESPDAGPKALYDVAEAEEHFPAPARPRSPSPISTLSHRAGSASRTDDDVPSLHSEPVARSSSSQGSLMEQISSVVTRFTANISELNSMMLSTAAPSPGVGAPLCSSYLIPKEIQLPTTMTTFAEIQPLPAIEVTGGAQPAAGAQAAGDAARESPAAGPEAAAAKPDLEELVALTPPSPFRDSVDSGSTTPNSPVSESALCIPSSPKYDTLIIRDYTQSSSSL

`O=C1c2nc(COc3ccccc3)nn2CCN1c1ccc(F)cc1` gave an EC50 of 2810 nM.

From BindingDB's records for doi:10.1016/j.bmcl.2015.11.098 (Janssen Pharmaceutica, 2016)
